Reference: US20230365673A1, “MEANS FOR REDUCING RADIO- AND CHEMOTHERAPY RESISTANCE AND ADVERSE EFFECTS” (JOHANN WOLFGANG GOETHE-UNIVERSITÄT FRANKFURT AM MAIN, priority 2020, published 2023)

How the values were obtained:
human fibroblasts = experiment: Nitrite concentration by Griess assay in human fibroblast supernatants; type: cell-based; settings: IL-1α 1 μg/mL only, 72 h
From the text: (A and B) Quantification of IL-1 and IL-1RA baseline serum levels in non-pCR (n=25) and pCR (n=7) patients before CRT. Data are mean±SD. ** p<0.01 by t-test. (C) IL-1RA serum level association with two SNPs: rs4251961 (T/C) and rs579543 (A/G) using DNA isolated from patients (n=31) pre-CRT peripheral blood mononuclear cells. Data are mean±SD. ** p=0.0052 by t-test. (D) Kaplan-Meier DFS curve of patients with high (n=37) and low (n=37) IL-1RN expression score (median split) based on the RNA sequencing data of pre-CRT biopsies. * p<0.05 by Log-rank (Mantel-Cox) test. […] (H) Paired analysis of sirius red staining of non-pCR patients (n=11) pre versus post-CRT. Scale bars=300 μm. (I) Paired quantification of p21 immunohistochemistry staining of non-pCR patients (n=10) pre versus post CRT. (J) Correlation analysis of pre-CRT serum IL-1RA levels with ratio of p21 induction (post/pre-CRT p21 RNA expression level) (n=10 non pCR patients). * p<0.05 by Spearman r correlation test. […] (M) Nitrite concentration determined by Griess assay in supernatants from WT, IL-1RA high & IL-1RA low conditioned media treated human fibroblasts for 72 h (n=13 independent wells per group). […] (N) Nitrite concentration determined by Griess assay in supernatants from untreated and IL-1α (1 μg/mL) stimulated human fibroblasts for 72 h (n=32 independent wells per group representing 3 independent experiments). […]

colon fibroblasts = experiment: Oxidative DNA damage by 8-OHdG immunofluorescence in fibroblasts; type: cell-based, mouse; settings: recombinant IL-1α 1 μg/mL, 72 hours
Procedure: (A) Schematic illustration of APTKA organoids supernatant collection and treatment of colon fibroblasts from unchallenged wildtype C57BL/6 mice for 12 h followed by 3×2 Gy irradiation. Microscopic, proteomic & transcriptomic analysis were performed 72 h post first irradiation. (B) Microscopic captures of non-irradiated wildtype (WT) and APTKA conditioned fibroblasts. Remaining captures belong to irradiated fibroblasts: WT, IL-1α (1 μg/mL) stimulated WT, and APTKA conditioned media minus or plus anakinra (20 μg/mL) treated fibroblasts. Scale bars=200 μm. (C) Mass spectrometric analysis of matrisome profiles of 3×2 Gy irradiated (n=8) and non-irradiated (n=8) APTKA conditioned fibroblasts. […] (G) Immunoblot analysis of untreated and irradiated APTKA conditioned fibroblasts. Representative results from one experiment which has been independently repeated 2 times. (H) SA-ß gal staining of untreated and irradiated APTKA fibroblasts. Scale bars=100 μm. (I and J) p21 and pH2AX immunofluorescent staining of untreated and irradiated APTKA fibroblasts. Scale bars=[…]. Data are mean±SD. ** […] and *** p<0.001 by t-test. (K) Nitrite concentration determined by Griess assay in conditioned media from WT, APTK media, APTKA media, IL-1α (1 μg/mL) stimulated and APTKA plus anakinra (20 μg/mL) treated fibroblasts for 72 h (n=10 independent wells per group). […]

“recombinant IL-1α: recombinant cytokine used to stimulate fibroblasts” was tested, and the “nitrite production by fibroblasts” value (human fibroblasts) was “higher nitrite production by fibroblasts” and the “oxidative DNA damage (8-OHdG immunofluorescence)” value (colon fibroblasts) was “increase in oxidative DNA damage”.
